From patent US20150204836A1, “SOLUBLE METAL SENSOR COMPOUNDS AND METHODS FOR MAKING AND USING THE SAME” (UNIVERSITY OF UTAH RESEARHC FOUNDATION, priority 2012, published 2015)
Converted amounts (≈) assume the structure as drawn.

How the values were obtained:
[1] = pH tuning study, selectivity for Hg^2+ over 11 other metal ions (fluorescence quenching); details: 1.0 μM Compound 1, 11 metal ions each 5 μM, 2.0 μM Hg^2+, pH 4, 5, 6, 7
Experimental: The selectivity of the sensor Compound 1 for Hg^2+ over environmentally relevant alkali, alkaline earth and transition metal ions (K^+, […], Mg^2+, Ca^2+, Ba^2+, Zn^2+, Fe^2+, Ni^2+, Cd^2+, Pb^2+, Cu^2+) was investigated in different pH solution pH=4, 5, NaOAc 0.02M buffer, pH=6, PBS 0.02M buffer, pH 7 water (panel A pH 4.0, panel B pH 5.0, panel C pH 6.0, panel D pH 7.0). Fluorescence spectra of a 1.0 μM Compound 1 solution in the absence (A line) and presence (B line) of a mixture of all 11 metal ions (each 5 μM).

[2] = Spectral properties (absorbance, extinction coefficient, emission) in various solvents; type: physicochemical
[3] = Storage stability of metal sensor solution in HDPE/LDPE squeeze bottles; type: physicochemical; details: 7.4 μM in 50% glycerol-water, on shelf in room and outside in shade
Experimental: High density polyethylene (HDPE) and low density polyethylene (LDPE) squeeze bottles were used to store metal sensor solutions (7.4 μM Compound 1). One pair of HDPE and LDPE bottles was stored on shelf in room, and the other pair of bottles was stored outside in shade. Compound 1 is very stable in 50% glycerol-water without obvious change of absorbance and fluorescence spectra at least for 6 weeks.

[4] = Temperature effect on fluorescence quenching by Hg^2+; details: one point assay, 1.0 μM Compound 1, 2.0 μM Hg^2+, 596 nm, varying temperatures
Text: New sensors could be used to test water sources in quite different locations, at different seasons, and from diverse water sources.

[5] = Linear fluorescence detection response and detection limit for Hg^2+; details: 0.3 μM of Compound 1; corresponding to a 1% decrease of fluorescence intensity
Experimental: Linear detection response for Hg^2+ was determined/established for several concentrations of Compound 1. A linear detection response of Hg^2+ in the range 0 to 18 ppb for 0.3 μM of Compound 1 and a detection limit of 0.4 ppb for Hg^2+, corresponding to a 1% decrease of fluorescence intensity was determined (FIG. 2A).

[6] = Solubility in various solvents; type: physicochemical
Experimental: Compound 1 is a dark red color solid with solubility in water about 30 μM, much higher than detection concentration (0.3˜5 μM) that is commonly used in fluorometer or portable detector. Various solvents have been tested in the following table. For transferring Compound 1 as aliquots, ethanol-dichloromethane (DCM) (5:1) is a good solvent giving good solubility and easy evaporation of solvent.

Question: Which results are given for Cc1cn([C@@H]2C[C@@H](O)[C@H](CNC(=O)CCN3C(=O)c4cc(Oc5cccnc5)c5c6c(Oc7cccnc7)cc7c8c(cc(Oc9cccnc9)c(c9c(Oc%10cccnc%10)cc(c4c59)C3=O)c86)C(=O)N(CCC(=O)NC[C@H]3O[C@@H](n4cc(C)c(=O)[nH]c4=O)C[C@@H]3O)C7=O)O2)c(=O)[nH]c1=O [Compound 1, N-(((2R,3S,5R)-3-hydroxy-5-(5-methyl-2,4-dioxo-3,4-dihydropyrimidin-1(2H)-yl)tetrahydrofuran-2-yl)methyl)-3-(9-(3-((((2S,3R,5S)-3-hydroxy-5-(5-methyl-2,4-dioxo-3,4-dihydropyrimidin-1(2H)-yl)tetrahydrofuran-2-yl)methyl)amino)-3-oxopropyl)-1,3,8,10-tetraoxo-5,6,12,13-tetrakis(pyridin-3-yloxy)-9,10-dihydroanthra[2,1,9-def:6,5,10-d′e′f′]diisoquinolin-2(1H,3H,8H)-yl)propanamide]?
Answer: fluorescence response on addition of Hg^2+ to mixture of 11 metal ions [1]: fluorescence quenching; ε (extinction coefficient) ([2]; 15% Glycerol-H2O): 15000 M⁻¹ cm⁻¹; λmax,abs ([2]; 15% Glycerol-H2O): 564 nm; λmax,flu ([2]; 15% Glycerol-H2O): 598 nm; ε (extinction coefficient) ([2]; 30% Glycerol-H2O): 16970 M⁻¹ cm⁻¹; λmax,abs ([2]; 30% Glycerol-H2O): 566 nm; λmax,flu ([2]; 30% Glycerol-H2O): 598 nm; ε (extinction coefficient) ([2]; 50% Glycerol-H2O): 16330 M⁻¹ cm⁻¹; λmax,abs ([2]; 50% Glycerol-H2O): 565 nm; λmax,flu ([2]; 50% Glycerol-H2O): 598 nm; ε (extinction coefficient) ([2]; DMF-H2O (7:3)): 18900 M⁻¹ cm⁻¹; λmax,abs ([2]; DMF-H2O (7:3)): 561 nm; λmax,flu ([2]; DMF-H2O (7:3)): 595 nm; ε (extinction coefficient) ([2]; Ethanol): 12830 M⁻¹ cm⁻¹; λmax,abs ([2]; Ethanol): 557 nm; λmax,flu ([2]; Ethanol): 594 nm; ε (extinction coefficient) ([2]; Ethanol-DCM (5:1)): 16000 M⁻¹ cm⁻¹; λmax,abs ([2]; Ethanol-DCM (5:1)): 558 nm; λmax,flu ([2]; Ethanol-DCM (5:1)): 595 nm; ε (extinction coefficient) ([2]; H2O): 12375 M⁻¹ cm⁻¹; λmax,abs ([2]; H2O): 563 nm; λmax,flu ([2]; H2O): 595 nm; ε (extinction coefficient) ([2]; Isopropanol): 15200 M⁻¹ cm⁻¹; λmax,abs ([2]; Isopropanol): 561 nm; λmax,flu ([2]; Isopropanol): 594 nm; stable without obvious change of absorbance and fluorescence spectra [3]: ≥ 6 weeks; temperature effect on quenching efficiency [4]: small, but potentially significant, effect; detection limit for Hg^2+ [5]: 0.4 ppb; solubility ([6]; 15% glycerol in water, aqueous with cosolvent or surfactant or cyclodextrin, 15% Glycerol-H2O): ~50 µM (≈ 67.7 µg/mL); solubility ([6]; 30% glycerol in water, aqueous with cosolvent or surfactant or cyclodextrin, 30% Glycerol-H2O): > 86 µM; solubility ([6]; 30% propylene glycol in water, aqueous with cosolvent or surfactant or cyclodextrin, 30% Propylene glycol-H2O): > 86 µM; solubility ([6]; 50% glycerol in water, aqueous with cosolvent or surfactant or cyclodextrin, 50% Glycerol-H2O): > 86 µM; solubility ([6]; 50% propylene glycol in water, aqueous with cosolvent or surfactant or cyclodextrin, 50% Propylene glycol-H2O): > 86 µM; solubility ([6]; DMF, organic solvent or mixture): > 200 µM; solubility ([6]; DMF-water (7:3), organic solvent or mixture, DMF-H2O (7:3)): > 200 µM; solubility ([6]; ethanol, organic solvent or mixture): ~100 µM (≈ 135 µg/mL); solubility ([6]; ethanol-dichloromethane (5:1), organic solvent or mixture, Ethanol-DCM (5:1)): > 342 µM; solubility ([6]; isopropanol, organic solvent or mixture): > 86 µM; solubility ([6]; water): ~30 µM (≈ 40.6 µg/mL)
